38 molecules from patent US20240150377A1, “MODULATORS OF CYSTIC FIBROSIS TRANSMEMBRANE CONDUCTANCE REGULATOR” (VERTEX PHARMACEUTICALS INCORPORATED, priority 2020, published 2024) can be followed below.

pEC50: −log10 of the molar value. Where two headings read alike, the source gives them in different places.

The assay addresses T1, CFTR (Homo sapiens, UniProt P13569, DEL508-508).
T1 construct: endogenous in cells; host or cells: primary human bronchial epithelial cells from CF subjects (F508del/MF-HBE), differentiated at air-liquid interface
The experiment in a line: HBE assay: Ussing chamber assay of CFTR-mediated short-circuit currents. The class given is cell-based. As to conditions: for pEC50: read-out: HBE EC50. An outline of the steps:
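CFTR-mediated Isc (μA/cm²) equals the peak response to apical 20 μM forskolin minus the residual after a 20 μM each BPO/GlyH-101/CFTR inhibitor 172 cocktail, recorded in Ussing chambers at Vhold 0 mV, 37 °C, pH 7.4, with 30 μM apical amiloride. Cells were F508del/MF HBE cultures preincubated 18-24 h with corrector (concentration range or 10 μM) plus 1 μM ivacaftor in 20% human serum.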

Where [1] appears, read: Table 13, at 10 μM, read-out: HBE Activity at 10 μM (%).
[2] abbreviates: Table 13, read-out: HBE Max Activity (%).
Where [3] appears, read: HBE assay, read-out: HBE Max activity (%).
The mark [4] stands for this setting: Table 12, read-out: HBE Max Activity (%).
Where [5] appears, read: Table 12, at 10 μM, read-out: HBE Activity at 10 μM (%).
[6] abbreviates: Table 11, read-out: HBE Max Activity (%).

T1 sequence (P13569 with tags, fused parts or gaps DEL508-508): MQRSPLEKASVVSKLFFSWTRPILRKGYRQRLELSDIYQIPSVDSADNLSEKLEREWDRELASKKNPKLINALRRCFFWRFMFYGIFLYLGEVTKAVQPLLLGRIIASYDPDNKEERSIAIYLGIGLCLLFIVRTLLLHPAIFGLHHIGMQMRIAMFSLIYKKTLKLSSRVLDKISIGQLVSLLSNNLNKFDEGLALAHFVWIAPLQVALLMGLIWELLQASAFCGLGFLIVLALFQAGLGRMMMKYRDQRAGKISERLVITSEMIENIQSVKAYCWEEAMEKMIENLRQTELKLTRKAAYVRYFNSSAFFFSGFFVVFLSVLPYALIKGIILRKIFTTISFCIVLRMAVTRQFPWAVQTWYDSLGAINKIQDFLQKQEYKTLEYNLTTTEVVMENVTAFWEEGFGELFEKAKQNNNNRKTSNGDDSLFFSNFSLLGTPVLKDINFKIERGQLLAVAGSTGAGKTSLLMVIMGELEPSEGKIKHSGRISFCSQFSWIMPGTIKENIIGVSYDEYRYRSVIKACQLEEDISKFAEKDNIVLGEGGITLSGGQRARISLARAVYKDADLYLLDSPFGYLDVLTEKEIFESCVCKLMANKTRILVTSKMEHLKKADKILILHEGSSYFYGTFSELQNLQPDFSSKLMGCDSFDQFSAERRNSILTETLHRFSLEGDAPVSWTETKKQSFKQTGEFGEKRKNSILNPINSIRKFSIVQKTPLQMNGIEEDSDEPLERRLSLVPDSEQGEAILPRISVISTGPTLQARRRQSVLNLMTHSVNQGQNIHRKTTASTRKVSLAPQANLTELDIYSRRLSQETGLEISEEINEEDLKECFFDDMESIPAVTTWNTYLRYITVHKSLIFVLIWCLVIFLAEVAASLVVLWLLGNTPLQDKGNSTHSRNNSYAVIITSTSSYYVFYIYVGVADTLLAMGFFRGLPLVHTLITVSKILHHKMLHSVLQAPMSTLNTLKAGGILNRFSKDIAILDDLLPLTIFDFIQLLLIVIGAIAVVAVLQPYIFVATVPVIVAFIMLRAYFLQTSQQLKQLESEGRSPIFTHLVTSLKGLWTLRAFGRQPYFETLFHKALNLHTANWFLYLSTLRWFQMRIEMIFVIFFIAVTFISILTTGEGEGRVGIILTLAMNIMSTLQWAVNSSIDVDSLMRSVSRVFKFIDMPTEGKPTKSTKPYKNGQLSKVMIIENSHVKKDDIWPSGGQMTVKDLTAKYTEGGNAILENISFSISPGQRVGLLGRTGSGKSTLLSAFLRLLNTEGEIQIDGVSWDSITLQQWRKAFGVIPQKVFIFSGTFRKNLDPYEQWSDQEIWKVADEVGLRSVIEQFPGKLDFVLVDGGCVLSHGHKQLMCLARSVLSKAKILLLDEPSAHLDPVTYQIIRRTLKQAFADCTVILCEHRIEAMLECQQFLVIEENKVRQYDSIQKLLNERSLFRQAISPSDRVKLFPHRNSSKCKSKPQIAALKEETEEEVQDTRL

Take `Cc1cccc(C)c1-c1cc2nc(n1)NS(=O)(=O)c1cccc(c1)C(=O)N(CC(=O)N1CCCCC1c1ccccc1F)[C@H](CC(C)(C)C)CO2` (stereo partly shown) [Compound 176]: the activation at 10 µM under setting [1] was above 600%.

Consider `Cc1cccc(C)c1-c1cc2nc(n1)NS(=O)(=O)c1cccc(c1)C(=O)N(Cc1cccc(C(=O)N3CCC(C)(C)C3)n1)[C@H](CC(C)(C)C)CO2` [Compound 1138], for which, for the setting “Table 13”, the pEC50 is above 6.00. Under setting [2], the Emax is above 60%. As for `Cc1cccc(C)c1-c1cc2nc(n1)NS(=O)(=O)c1cccc(c1)C(=O)N(Cc1ncc(OC3CC(C)(C)C3)cn1)[C@H](CC1CC1)CO2` [Compound 1454], for the setting “HBE assay”, the negative-log EC50 (pEC50) is above 6.00. Also, the Emax under setting [3] is above 60%. In the case of `Cc1cccc(C)c1-c1cc2nc(n1)NS(=O)(=O)c1cccc(c1)C(=O)N(Cc1ncc(N3CC[C@](C)(O)C3)cn1)[C@H](CC(C)(C)C)CO2` [Compound 541], the negative-log EC50 (pEC50) (Table 12) is above 6.00. Besides, the Emax under setting [4] was above 60%. Turning to `Cc1cccc(C)c1-c1cc2nc(n1)NS(=O)(=O)c1cccc(c1)C(=O)N(Cc1ccc(C3CC(C)(C)C3)cn1)[C@H](CC(C)(C)C)CO2` [Compound 159], the negative logarithm of the EC50 (pEC50) (Table 13) was above 6.00. Moreover, the Emax under setting [2] was above 60%. Turning to `Cc1cccc(C)c1-c1cc2nc(n1)NS(=O)(=O)c1cccc(c1)C(=O)N(Cc1cccc(Br)n1)[C@H](CC(C)(C)C)CO2` [Compound 992], under setting [1], the activation at 10 µM is above 600%. As for `Cc1cccc(C)c1-c1cc2nc(n1)NS(=O)(=O)c1cccc(c1)C(=O)N(Cc1ncc(N3CCC(F)(F)C3)cn1)[C@H](CC(C)(C)C)CO2` [Compound 1379], the pEC50 (HBE assay) was above 6.00. In addition, the Emax under setting [3] is above 60%. With `Cc1cccc(C)c1-c1cc2nc(n1)NS(=O)(=O)c1cccc(c1)C(=O)N(Cc1ccc(C3CCOCC3)cc1F)[C@H](CC(C)(C)C)CO2` [Compound 518], the activation at 10 µM under setting [1] is above 600%.

With `Cc1cccc(C)c1-c1cc2nc(n1)NS(=O)(=O)c1cccc(c1)C(=O)N(Cc1cccc(N3CCCC3C(F)(F)F)n1)[C@H](CC(C)(C)C)CO2` (stereo partly shown) [Compound 549], under setting [5], the activation at 10 µM was above 600%. For the molecule `Cc1cccc(C)c1-c1cc2nc(n1)NS(=O)(=O)c1cccc(c1)C(=O)N(Cc1ncc(CC(C)C)cn1)[C@H](CC(C)C)CO2` [Compound 574], the pEC50 (Table 12) was above 6.00. Also, the Emax under setting [4] is above 60%. On to `Cc1cccc(C)c1-c1cc2nc(n1)NS(=O)(=O)c1cccc(c1)C(=O)N(Cc1nccc(N3CCOCC3)n1)[C@H](CC(C)(C)C)CO2` [Compound 651], for which the pEC50 (Table 11) was above 6.00. Under setting [6], the Emax was above 60%. Turning to `Cc1cccc(C)c1-c1cc2nc(n1)NS(=O)(=O)c1cccc(c1)C(=O)N(Cc1cc(OC(C)C)ccn1)[C@H](CC(C)(C)C)CO2` [Compound 1114], the activation at 10 µM under setting [1] is above 600%. On to `Cc1cccc(C)c1-c1cc2nc(n1)NS(=O)(=O)c1cccc(c1)C(=O)N(Cc1nccc(N(C)C3CC4(CC4)C3)n1)[C@H](CC(C)(C)C)CO2` [Compound 615], for which the pEC50 (Table 11) was above 6.00. Also, the Emax under setting [6] is above 60%. As for `Cc1cccc(C)c1-c1cc2nc(n1)NS(=O)(=O)c1cccc(c1)C(=O)N(Cc1nc(N(C)C)cc(C(F)(F)F)n1)[C@H](CC(C)(C)C)CO2` [Compound 325], the activation at 10 µM under setting [5] is above 600%. On the same count and under the same terms, in the case of `Cc1cccc(C)c1-c1cc2nc(n1)NS(=O)(=O)c1cccc(c1)C(=O)N(Cc1ccc(OC(C)C)nc1)[C@H](CC(C)(C)C)CO2` [Compound 880] it was above 600%. For `Cc1cccc(C)c1-c1cc2nc(n1)NS(=O)(=O)c1cccc(c1)C(=O)N(Cc1ccc(C3CC4(CCC4)C3)cn1)[C@H](CC(C)(C)C)CO2` [Compound 163], the pEC50 (Table 13) is 5.52 to 6.00. Under setting [2], the Emax was above 60%. In the same order, the values of `COc1cnc(CN2C(=O)c3cccc(c3)S(=O)(=O)Nc3nc(cc(-c4c(C)cccc4C)n3)OC[C@H]2CC(C)(C)C)c(F)c1` [Compound 1112] are above 6.00 and above 60%. In the case of `Cc1cccc(C)c1-c1cc2nc(n1)NS(=O)(=O)c1cccc(c1)C(=O)N(Cc1ncc([C@@H](O)CO)cn1)[C@H](CC(C)(C)C)CO2` [Compound 1153], where the note is “Table 13”, the pEC50 was 5.52 to 6.00. In addition, the Emax under setting [2] was above 60%. As to `Cc1cccc(C)c1-c1cc2nc(n1)NS(=O)(=O)c1cccc(c1)C(=O)N(CC1CCC(C)(C)O1)[C@H](CC(C)(C)C)CO2` (single isomer, unassigned) [Compound 34], the pEC50 (Table 11) was above 6.00. Further, under setting [6], the Emax is above 60%. Take `Cc1cccc(C)c1-c1cc2nc(n1)NS(=O)(=O)c1cccc(c1)C(=O)N(Cc1ncccc1-c1c[nH]nc1C1CC1)[C@H](CC(C)(C)C)CO2` [Compound 300]: the activation at 10 µM (Table 10, at 10 μM, read-out: HBE activity at 10 (μM) (%)) was above 60%. Regarding `Cc1cccc(C)c1-c1cc2nc(n1)NS(=O)(=O)c1cccc(c1)C(=O)N(CC(=O)NC1CCC13CCC3)[C@H](CC(C)(C)C)CO2` (stereo partly shown) [Compound 173], the activation at 10 µM under setting [1] is above 600%. For `COCCCN(c1cccc(CN2C(=O)c3cccc(c3)S(=O)(=O)Nc3nc(cc(-c4c(C)cccc4C)n3)OC[C@H]2CC(C)(C)C)n1)C(C)C` [Compound 1136], the pEC50 (Table 13) is above 6.00. Also, the Emax under setting [2] is above 60%. For the molecule `Cc1cccc(C)c1-c1cc2nc(n1)NS(=O)(=O)c1cccc(c1)C(=O)N(Cc1ccc(C#CC(C)(C)CO)cn1)[C@H](CC(C)(C)C)CO2` [Compound 250], the pEC50 (Table 12) is above 6.00. Under setting [4], the Emax was above 60%.

In the case of `C=C(C)c1nccc(CN2C(=O)c3cccc(c3)S(=O)(=O)Nc3nc(cc(-c4c(C)cccc4C)n3)OC[C@H]2CC(C)(C)C)n1` [Compound 593], the pEC50 (Table 12) is above 6.00. The Emax under setting [4] is above 60%. With `Cc1cccc(C)c1-c1cc2nc(n1)NS(=O)(=O)c1cccc(c1)C(=O)N(Cc1cncc(N(C)CC(C)(C)C)n1)[C@H](CC(C)(C)C)CO2` [Compound 62, (11R)-6-(2,6-Dimethylphenyl)-11-(2,2-dimethylpropyl)-12-({6-[(2,2-dimethylpropyl)(methyl)amino]pyrazin-2-yl}methyl)-9-oxa-2λ^6-thia-3,5,12,19-tetraazatricyclo[12.3.1.14,8]nonadeca-1(18),4,6,8(19),14,16-hexaene-2,2,13-trione], for the setting “Table 11”, the pEC50 was above 6.00. Under setting [6], the Emax was above 60%.

Take `Cc1cccc(C)c1-c1cc2nc(n1)NS(=O)(=O)c1cccc(c1)C(=O)N(Cc1cccc(N3CC(C)(C)CC3(C)C)n1)[C@H](CC(C)(C)C)CO2` [Compound 597]: the negative-log EC50 (pEC50) (Table 12) is above 6.00. Also, under setting [4], the Emax was 30 to 60%.

Regarding `CCC(C)C(CO)N(C)c1cncc(CN2C(=O)c3cccc(c3)S(=O)(=O)Nc3nc(cc(-c4c(C)cccc4C)n3)OC[C@H]2CC(C)(C)C)n1` (stereo partly shown) [Compound 260], the pEC50 (Table 12) was above 6.00. In addition, under setting [4], the Emax is above 60%. On to `COC(=O)NC1CC2(CC(CN3C(=O)c4cccc(c4)S(=O)(=O)Nc4nc(cc(-c5c(C)cccc5C)n4)OC[C@H]3CC(C)(C)C)C2)C1` (stereo partly shown) [Compound 1001], for which, under setting [1], the activation at 10 µM is above 600%.

As for `Cc1cccc(C)c1-c1cc2nc(n1)NS(=O)(=O)c1cccc(c1)C(=O)N(Cc1ncc(C#N)cn1)[C@H](CC(C)(C)C)CO2` [Compound 643], the pEC50 (Table 11) is above 6.00. Also, the Emax under setting [6] is above 60%. For `Cc1cccc(C)c1-c1cc2nc(n1)NS(=O)(=O)c1cccc(c1)C(=O)N(CCc1ccc(C3CCCCC3)cn1)[C@H](CC(C)(C)C)CO2` [Compound 112, (11R)-12-[2-(5-Cyclohexyl-2-pyridyl)ethyl]-6-(2,6-dimethylphenyl)-11-(2,2-dimethylpropyl)-2,2-dioxo-9-oxa-2λ^6-thia-3,5,12,19-tetrazatricyclo[12.3.1.14,8]nonadeca-1(18),4(19),5,7,14,16-hexaen-13-one], in that order: above 6.00 and above 60%. In the case of `Cc1cccc(C)c1-c1cc2nc(n1)NS(=O)(=O)c1cccc(c1)C(=O)N(Cc1ncc(N3CC(F)(F)C(F)(F)C3)cn1)[C@H](CC(C)(C)C)CO2` [Compound 1500], the activation at 10 µM (HBE assay, 10 μM, read-out: HBE Activity at 10 μM (%)) was above 60%. Take `Cc1cccc(C)c1-c1cc2nc(n1)NS(=O)(=O)c1cccc(c1)C(=O)N(Cc1cccc(NC(C)C)n1)[C@H](CC(C)(C)C)CO2` [Compound 736]: the pEC50 (Table 11) is above 6.00. For the same molecule, under setting [6], the Emax was above 60%. As for `Cc1cccc(C)c1-c1cc2nc(n1)NS(=O)(=O)c1cccc(c1)C(=O)N(Cc1ncc(N3CC4(C3)CC(C)(C)C4)cn1)[C@H](CC(C)(C)C)CO2` [Compound 869], the pEC50 (Table 13) is above 6.00. In addition, the Emax under setting [2] is above 60%.

On to `COC[C@@H]1CCCN1c1cnc(CN2C(=O)c3cccc(c3)S(=O)(=O)Nc3nc(cc(-c4c(C)cccc4C)n3)OC[C@H]2CC(C)(C)C)nc1` [Compound 571], for which the pEC50 (Table 12) is above 6.00. The Emax under setting [4] was above 60%. Take `Cc1cccc(C)c1-c1cc2nc(n1)NS(=O)(=O)c1cccc(c1)C(=O)N(Cc1ccc(C(=O)O)cn1)[C@H](CC(C)(C)C)CO2` [Compound 247]: under setting [1], the activation at 10 µM lay within 30 to 60%. Take `Cc1cccc(C)c1-c1cc2nc(n1)NS(=O)(=O)c1cccc(c1)C(=O)N(CC(=O)N1CCCC1(C)C)[C@H](CC(C)(C)C)CO2` [Compound 213]: the activation at 10 µM under setting [1] is above 600%. In the case of `Cc1cccc(C)c1-c1cc2nc(n1)NS(=O)(=O)c1cccc(c1)C(=O)N(Cc1ccc(N3CCOCC3)cn1)C(CC(C)(C)C)CO2` (stereo not shown) [Compound 332], under “Table 11, at 10 μM, read-out: HBE Activity at 10 μM (%)”, the activation at 10 µM was below 30%. Turning to `Cc1cccc(C)c1-c1cc2nc(n1)NS(=O)(=O)c1cccc(c1)C(=O)N(Cc1ncc(N(C)C)c(C)n1)[C@H](CC(C)(C)C)CO2` [Compound 1008], the activation at 10 µM under setting [5] was above 600%.
